Patent publication US9260700B2 (priority 2011, dated 2016)

What was measured:
[1] = system: Myrothecium verrucaria bilirubin oxidase (BOD), produced in Pichia pastoris; details: pH 6.5, with respect to ABTS; cited from earlier work
[2] = target: Magnaporthe oryzae bilirubin oxidase (BOD), produced in Pichia pastoris, SEQ. ID. No.3 (SEQ. ID. No.1 with additional N-terminal serine) (Pyricularia oryzae, UniProt G4MQU0); type: biochemical; details: 37° C., citrate-phosphate buffer 50 mM pH 3.6, bilirubin 0 to 100 μM

Question: For CCn1c(=NN=c2sc3cc(S(=O)(=O)O)ccc3n2CC)sc2cc(S(=O)(=O)O)ccc21 [ABTS, 2,2′-azino-bis(3-ethylbenzothiazoline-6-sulphonic acid)], which Km [1] is on record?
Answer: Its Km is 340 µM.

Question: With conjugated bilirubin as the compound, how does the Km [2] read?
Answer: Its Km is 18.5 µM.

Question: What about the kcat [2] of the same compound?
Answer: Its kcat is 28 s⁻¹.
